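All cell lines were grown in 96-well plates and treated with compound for 48 hours. GI50 is the concentration that inhibits growth by half.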 Active and inactive are the calls of the source. Cut-off read from the data, not from the text of the source: active = GI50 up to about 1.1 µM and inactive = higher.

Common to all, as to assay: NCI tumour cell line growth inhibition, 48 h
Assay [1] has as its system SW-620.
Assay [2] has as its system DMS-273.
Assay [3] has as its system DMS-114.
Assay [4] concerns UACC-257.
Assay [5] has as its system KM-20L2.
Assay [6] concerns SK-MEL-2.
Assay [7] concerns XF498.
Assay [8] has as its system U-251.
Assay [9] concerns NCI-H522.
The test system of assay [10] is LXFL 529.
Assay [11] concerns IGROV-1.
For assay [12], the system named is MOLT-4.
For assay [13], the system named is CAKI-1.
Assay [14] concerns K562.
The subject of assay [15] is DLD-1.
In assay [16] the test system is HOP-62.
The test system of assay [17] is OVCAR-3.
The subject of assay [18] is HOP-92.
Assay [19] has as its system CCRF-CEM.

Turning to `COc1ccc(C(=O)/C(=N/Nc2ccccc2)c2ccc(OC)cc2)cc1`, the GI50 in assay [1] is > 100 µM (inactive); in assay [2], 31.6 µM (inactive); in [3], 58.1 µM (inactive); in assay [4], > 100 µM (inactive); in [5], 10.2 µM (inactive); in [6], > 100 µM (inactive). The GI50 was > 100 µM (inactive) in [7]; > 100 µM (inactive) in assay [8]; 80.4 µM (inactive) in assay [9]; 25.2 µM (inactive) in [10]; > 100 µM (inactive) in assay [11]; 9.66 µM (inactive) in assay [12]. The GI50 was > 100 µM (inactive) in [13], 20.4 µM (inactive) in assay [14] and 6.87 µM (inactive) in assay [15].

Consider `Cc1ccc(S(=O)OCc2c(C)c(C)c(COS(=O)c3ccc(C)cc3)c(C)c2C)cc1` (stereo not drawn), for which the GI50 in [1], in assay [2], in assay [3], in [4], in assay [5] and in [7] was > 100 µM (inactive) throughout. For the same compound, the GI50 in [16], in assay [17], in assay [8], in assay [9], in [10] and in assay [11] was > 100 µM (inactive) throughout. The GI50 in assay [18] is > 100 µM (inactive); in assay [12], > 100 µM (inactive); in assay [13], > 100 µM (inactive); in assay [14], 65.5 µM (inactive); in [15], > 100 µM (inactive).

Regarding `CC1CCC[P+](Cc2ccccc2)(c2ccccc2)CC1` (stereo not drawn), the GI50 in assay [1] is 94.4 µM (inactive); in [2] it was 33.6 µM (inactive); in assay [3], 18.5 µM (inactive); in [5] it was 50.6 µM (inactive); in assay [6], 21.6 µM (inactive); in [19], 42.3 µM (inactive). Also, the GI50 in assay [7] was 21.4 µM (inactive); in assay [16] it was > 100 µM (inactive); in assay [8], 77.4 µM (inactive); in assay [10], 15.8 µM (inactive); in assay [11], 39 µM (inactive); in assay [12] it was 78.5 µM (inactive). Also, the GI50 in [14] is 31.3 µM (inactive); in assay [15], > 100 µM (inactive).

On to `COc1cc(OC)c(OC)cc1/C=N/NC(=O)N/N=C/c1cc(OC)c(OC)cc1OC`, for which the GI50 in assay [1], in [2], in [3], in assay [4], in assay [5] and in [6] was > 100 µM (inactive) in each case. For the same compound, the GI50 in assay [19] is > 100 µM (inactive); in [7], 72.4 µM (inactive); in [17] it was > 100 µM (inactive); in assay [8] it was > 100 µM (inactive); in [9], 17.5 µM (inactive); in [10] it was > 100 µM (inactive). For the same compound, the GI50 in assay [11] is > 100 µM (inactive); in assay [18], 49.9 µM (inactive); in assay [12], > 100 µM (inactive); in [14], > 100 µM (inactive).

Regarding `CCN(CC)c1ccc2c(c1)Oc1ccc(N(CC)CC)cc1C21Oc2ccccc2-c2c1c1ccccc1n2CC` (stereo not drawn), the GI50 in [1] is 3.58 µM (inactive); in [2] it was 3.4 µM (inactive); in assay [3], 0.506 µM (active); in assay [4] it was 2.89 µM (inactive); in assay [5], 0.875 µM (active); in assay [19], 1.44 µM (inactive). Also, the GI50 in assay [7] is 1.06 µM (active); in assay [17], 1.25 µM (inactive); in [8], 1.68 µM (inactive); in assay [9], 1.3 µM (inactive); in assay [10], 3.36 µM (inactive); in assay [18] it was 0.302 µM (active). Also, the GI50 in assay [12] is 2.88 µM (inactive); in assay [13], 5.15 µM (inactive); in [14], 0.679 µM (active); in assay [15], 3.48 µM (inactive).

As to `CC(=O)N(C)c1ccc2ncccc2c1[N+](=O)[O-]`, the GI50 in assay [1], in assay [2], in assay [3], in [4], in assay [5] and in assay [6] was > 100 µM (inactive) each time. The GI50 in assay [19], in [7], in assay [16], in assay [17], in assay [10] and in assay [11] was > 100 µM (inactive) in each case. Further, the GI50 in assay [18], in assay [12], in assay [13], in assay [14] and in assay [15] was > 100 µM (inactive) each time.

Regarding `NNC(=O)N/N=C1\C(=O)N(c2nccs2)C(=O)C(=O)C1c1nc2ccccc2s1` (stereo not drawn), the GI50 in assay [1], in [2], in assay [3], in assay [4], in [5] and in assay [6] was > 100 µM (inactive) each time. In addition, the GI50 in [7], in assay [16], in assay [17], in assay [8], in [10] and in assay [11] was > 100 µM (inactive) each time. Besides, the GI50 in assay [18], in assay [13] and in assay [15] was > 100 µM (inactive) each time.

On to `Cc1ccc(C)c(NC2=NC(=O)C(CC(=O)Nc3ccc(Cl)cc3Cl)S2)c1` (stereo not drawn), for which the GI50 in assay [1] is > 100 µM (inactive); in [2], 98.6 µM (inactive); in [3] it was 42.6 µM (inactive); in assay [4] it was > 100 µM (inactive); in assay [5], > 100 µM (inactive); in [6], 29.5 µM (inactive). Moreover, the GI50 in assay [19] was 41.4 µM (inactive); in assay [7] it was 32.7 µM (inactive); in [16] it was > 100 µM (inactive); in assay [17] it was 49.9 µM (inactive); in [8], 36.1 µM (inactive); in [9], 24 µM (inactive). Besides, the GI50 is 58.7 µM (inactive) in [10]; > 100 µM (inactive) in assay [11]; 54.8 µM (inactive) in assay [12]; > 100 µM (inactive) in assay [13]; 80.2 µM (inactive) in assay [14]; > 100 µM (inactive) in assay [15].

As for `Cc1c(Cl)cccc1NC(=O)C(=O)C(C(=O)c1ccccc1-c1ccccc1)C1OC(=O)c2ccccc21` (stereo not drawn), the GI50 was 21.3 µM (inactive) in assay [1]; 24.4 µM (inactive) in assay [2]; 16 µM (inactive) in [3]; 13.5 µM (inactive) in assay [4]; 23.7 µM (inactive) in assay [5]; 16.1 µM (inactive) in assay [6]. Further, the GI50 in assay [19] was 19.8 µM (inactive); in assay [7], 11.5 µM (inactive); in assay [16], 16.3 µM (inactive); in [17], 16 µM (inactive); in assay [8] it was 13.5 µM (inactive); in assay [9], 12.5 µM (inactive). In addition, the GI50 in assay [10] was 14 µM (inactive); in assay [11], 32.1 µM (inactive); in assay [18] it was 15.2 µM (inactive); in assay [12], 14.3 µM (inactive); in assay [14], 27.9 µM (inactive); in [15], 22.8 µM (inactive).

Consider `CN1CCC(O)C(CNC23CC4CC(CC(C4)C2)C3)C1` (stereo not drawn), for which the GI50 was > 100 µM (inactive) in assay [1]; > 100 µM (inactive) in assay [2]; > 100 µM (inactive) in assay [3]; > 100 µM (inactive) in [4]; 59 µM (inactive) in [5]; > 100 µM (inactive) in assay [6]. In addition, the GI50 in [19], in assay [7], in assay [16], in assay [8], in [9] and in [10] was > 100 µM (inactive) each time. For the same compound, the GI50 in assay [18] was 85.1 µM (inactive); in [12] it was > 100 µM (inactive); in assay [13], > 100 µM (inactive); in assay [14], > 100 µM (inactive); in assay [15], > 100 µM (inactive).

On to `Cn1c(=O)nc2n(-c3cc(Cl)ccc3Cl)c3ccccc3nc-2c1=O`, for which the GI50 in [1] is 2.18 µM (inactive); in assay [2], 3.67 µM (inactive); in assay [3], 2.11 µM (inactive); in [4], 2.18 µM (inactive); in assay [5], 2.93 µM (inactive); in assay [6], 5.62 µM (inactive). Moreover, the GI50 in assay [19] was 4.02 µM (inactive); in assay [7], 7.76 µM (inactive); in [16], 12 µM (inactive); in [17], 2.95 µM (inactive); in assay [8], 6.4 µM (inactive); in assay [9], 5.31 µM (inactive). Besides, the GI50 in assay [10] was 13.8 µM (inactive); in [11], 13 µM (inactive); in [12], 8.02 µM (inactive); in [13], 7.19 µM (inactive); in assay [14] it was 6.4 µM (inactive); in assay [15] it was 1.53 µM (inactive).

In the case of `C[C@@]12CCCc3coc(c31)C(=O)c1cc3c(cc12)C(=O)C=CC3=O` [XESTOQUINONE], the GI50 is 5.08 µM (inactive) in assay [1]; 18.5 µM (inactive) in assay [3]; 16.2 µM (inactive) in assay [4]; 18.4 µM (inactive) in assay [5]; 15.4 µM (inactive) in assay [6]; 2.23 µM (inactive) in [19]. In addition, the GI50 in assay [7] was 16.1 µM (inactive); in assay [17] it was 20.2 µM (inactive); in [8], 31.3 µM (inactive); in assay [9], 7.06 µM (inactive); in assay [10], 15 µM (inactive); in assay [11], 18.5 µM (inactive). Moreover, the GI50 in assay [18] was 4.52 µM (inactive); in [12] it was 1.96 µM (inactive); in [13] it was 14.9 µM (inactive); in assay [14], 3.61 µM (inactive); in [15] it was 2.54 µM (inactive).

These data come from ChEMBL document CHEMBL1201862, “PubChem BioAssay data set” (2004).
